Key:
old HSCs = test: Polar distribution of Cdc42 in LT-HSCs (confocal); format: cell-based, mouse; conditions: sorted LT-HSCs, 10 μM, 16 h in HSC media; 50-60 HSCs scored for Cdc42 polarity; repeated two times
Description: For phosho-p38 and TXNIP analysis using flow cytometry, total BM cells were first stained with surface markers and then fixed and permeabilized with the Cytofix/Perm Solution (BD Biosciences). For TXNIP staining, the cells were blocked with PBS containing 5% BSA for 30 min at RT and then incubated with primary antibody (1:50 dilution) for 1 h in PBS containing 5% BSA, washed three times with PBS and then incubated with a secondary Alexa Fluor 647 (Life technology; 1:1,000 dilution) for 1 h at RT or for phospho-p38 staining, the cells were incubated with anti-phospho-p38-APC (1:40 dilution) at 4 °C for 30 min in PBS containing 2% FBS. For confocal imaging, freshly isolated LT-HSCs were seeded on fibronectin-coated coverslips at 4 °C for 10 min and were immediately fixed. After fixation, cells were permeabilized with 0.2% Triton X-100 for 20 min and blocked with PBS containing 5% BSA for 30 min at RT. Cells were stained primary and secondary antibodies for 1 h at RT and then were mounted with DAPI containing mounting reagent (Molecular Probes). […] After fixation, cells were permeabilized with 0.2% Triton X-100 for 20 min and blocked with PBS containing 5% BSA for 30 min at RT. […] Fifty to sixty individual HSCs were scored for polarity of Cdc42. […]

mice = test: 5-FU haematopoietic stress in mice; format: in vivo, mouse
Description: young TXNIP+/+ or T X N IP -/- mice after 5-FU (150 mg kg-1) administration (n=10). NAC was
i.p. injected 100 m g kg -1 daily starting at da y -1. […] We i.p. injected
5- FU (150 mg kg-1) and NAC (100 mg kg-1) then examined ROS in HSCs after 24 hours
Data are mean ± s.d. Statistical significance was determined using a two-t ailed
Student’s t -tests. *P< 0.05, **P < 0.01, ***P <0.001.

TXNIP−/− HSCs = test: ROS and phospho-p38 of LT-HSCs after NAC treatment in vivo; parameters: species or system mouse; conditions: 12-month-old TXNIP−/− mice, NAC 100 mg kg−1 i.p., after 12 hours; n=3
Description: Supplementary Figure 2. Expression of p38 and TXNIP in HSCs and their interaction.
(a,b) ROS (a) and phospho- p38 level (b) of LT-HSCs after NAC treatment. We i.p. injected
100 mg kg-1 NAC into mice then anal yzed after 12 hours (n=3 ) . (c) Quantitative real-time
PCR of p38famil y in indicated subsets (n=3). ( d) Western blot anal yses of lin- cells (r epeated
3 times). ( e) Real-time PCR of TXNIP i n LT -HSCs (n=3). ( f) Confocal images of TXNIP in
LT-HSCs (rep eated 3 times). (g) Western blot anal yses of BM cells (rep eated 2 times). ( h,i )
GST pull-down assa y (repeated 3 times). ( j) Constructed p38 mutant clones. ( k) GST pull-
down assays between TXNIP and p38 mutants (repeated 3 times). Data are mean ± s.d.
Statistical significance was determined using a two-tailed Student’s t -tests. **P < 0.01.
matched WT mice (Fig. 1b). To make the data more consistent, the authors should present
their data as percentages of bone marrow cells and absolute number of LT-HSCs, SH-HSCs
Thank you for your valuable comments. We calculated the percentages of bone
marrow cells and absolute number of LT-HSCs, SH-HSCs and MPPs, and presented
the results in our new version Supplementary Fig. 1c,d.
the exhaustion of HSCs in TXNIP-/- mice by high ROS. We have added this text
“Next, we analyzed the frequency of BM cells and absolute number of LT-HSCs,
ST-HSCs and MPPs in each mouse. […]

TXNIP-p38 interaction = TXNIP-p38 interaction (immunoprecipitation, in situ PLA, GST pull-down); format: cell-based; conditions: GST pull-down assay in 293T cells
aged HSCs = test: Competitive transplantation of treated HSCs; format: in vivo, mouse; conditions: long-term SB203580-administered recipients; n=6-7 from two experiments (Fig. 3d,e)
Excerpt: The repopulation of donor-derived cells was monitored by staining PB from tail vein and BM cells with antibodies against indicated surface markers after 16 weeks.

Solubility = format: physicochemical; conditions: authors' statement in response to reviewers
p38α = test: In vitro kinase assay for p38 (phospho-ATF2 read-out); format: biochemical, human; conditions: His-p38α, phospho-ATF2 levels; repeated 2 times (Suppl. Fig. 4b)
Description: To examine the kinase activity of p38 in vitro, we used p38 MAP Kinase assay kit (9820, Cell Signaling). We added 0.5–1 μg of His-p38α for kinase assay and its activity was determined by phospho-ATF2 levels. […] FLAG-p38α, β, γ and δ were expressed in 293T cells (ATCC). p38 isoforms were immunoprecipitated with α-FLAG antibody (Sigma; 1:250 dilution) then we performed in vitro kinase assay.

YGRKKRRQRRR [TAT]
% of polarized cells (Old HSCs) (old HSCs): 9.3%

CC(=O)N[C@@H](CS)C(=O)O [NAC, N-acetyl-L-cysteine]
5-FU-induced ROS in HSCs (mice; 5-FU 150 mg kg−1 and NAC 100 mg kg−1 i.p., ROS after 24 hours, n=3): reversed | rescue of TXNIP−/− mice from 5-FU-induced leucopenia (survival) (mice; young mice, 5-FU 150 mg kg−1, NAC 100 mg kg−1 i.p. daily from day −1, n=10): fully rescued | ROS level in HSCs (TXNIP−/− HSCs): decreased | p38 activation in HSCs (TXNIP−/− HSCs): decreased

C[S+]([O-])c1ccc(-c2nc(-c3ccncc3)c(-c3ccc(F)cc3)[nH]2)cc1 (stereo not shown) [SB203580]
% of polarized cells (Old HSCs) (old HSCs): 76.9% | p38 interaction ability with TXNIP (TXNIP-p38 interaction): did not affect | p38 activity and ROS in donor-derived HSCs (aged HSCs): maintained low levels of p38 activity and ROS | solubility (Solubility): DMSO soluble

B1: GST-TXNIP-T: GST-fused truncation mutant for TXNIP (150a.a–317a.a) (protein)
chain: DVNTPDLMAPVSAKKEKKVSCMFIPDGRVSVSARIDRKGFCEGDEISIHADFENTCSRIVVPKAAIVARHTYLANGQTKVLTQKLSSVRGNHIISGTCASWRGKSLRVQKIRPSILGCNILRVEYSLLIYVSVPGSKKVILDLPLVIGSRSGLSSRTSSMASRTSSEM
modifications: left off: GST, end not stated, kept
p38 kinase activity in vitro (p38α): inhibited p38 kinase activity in vitro

From article PMC5155146, “Thioredoxin-interacting protein regulates haematopoietic stem cell ageing and rejuvenation by inhibiting p38 kinase activity” (Nature Communications, 2016)
